Reference: US10766865B2, “PKM2 modulators and methods for their use” (TOLERO PHARMACEUTICALS, INC., priority 2012, dated 2020)
Like-named read-outs stand apart in the source and are kept apart here.

Legend:
PKM2 [1] = biological target: T1, PKM2 (Homo sapiens, UniProt P14618); assay: Cell-Based Pyruvate Kinase Activity Assay, NCI-H1299; design: host or cells: A549 or NCI-H1299 lung cancer cells; settings: NCI-H1299, 30 minutes with compound, n = 4; read-out: Cellular PKM2 activation EC50
Protocol: Cell-Based Pyruvate Kinase Activity Assay
A549 or NCI-H1299 lung cancer cells were plated at 20,000 cells per well (96-well plate) in MEM media plus 10% FBS, with no additional glutamine or pyruvate. Following overnight incubation, cells were washed with PBS followed by 4 hour incubation in MEM media. Compounds were added to the cells in 1% final concentration DMSO. After 30 minutes, cells were lysed, and pyruvate kinase activity in lysates was determined by Pyruvate Kinase Activity Assay (BioVision, Milpitas, Calif.). Maximum velocity values were calculated from the kinetic data, and AC50 values were determined using Prism GraphPad Software (La Jolla, Calif.). Compound washout experiments were as described above, except after a 30 minute incubation with Example 244 (469 nM), the cells were washed with PBS followed by the addition of MEM media for the indicated time period, lysed and pyruvate kinase activity determined. Results are tabulated in Table 3 and presented graphically in FIGS. 6A and 6B.
Target sequence in this assay (P14618 2-531 limits assumed): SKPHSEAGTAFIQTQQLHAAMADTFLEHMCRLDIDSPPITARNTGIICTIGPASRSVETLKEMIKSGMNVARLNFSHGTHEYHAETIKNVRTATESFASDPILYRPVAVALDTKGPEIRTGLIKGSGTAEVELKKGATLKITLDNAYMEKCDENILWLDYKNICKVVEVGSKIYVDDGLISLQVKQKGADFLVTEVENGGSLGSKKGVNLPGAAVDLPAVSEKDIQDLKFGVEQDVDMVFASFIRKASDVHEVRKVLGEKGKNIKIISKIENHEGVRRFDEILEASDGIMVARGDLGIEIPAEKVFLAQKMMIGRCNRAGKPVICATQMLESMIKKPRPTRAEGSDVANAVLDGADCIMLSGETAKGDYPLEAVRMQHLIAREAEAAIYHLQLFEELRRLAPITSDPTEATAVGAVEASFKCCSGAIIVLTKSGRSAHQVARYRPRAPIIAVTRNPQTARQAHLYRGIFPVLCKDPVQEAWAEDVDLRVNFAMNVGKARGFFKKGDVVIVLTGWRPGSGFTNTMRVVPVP

PKM2 [2] = biological target: T1, PKM2; assay: PKM2 Biochemical Assay
Target sequence in this assay (P14618 whole entry): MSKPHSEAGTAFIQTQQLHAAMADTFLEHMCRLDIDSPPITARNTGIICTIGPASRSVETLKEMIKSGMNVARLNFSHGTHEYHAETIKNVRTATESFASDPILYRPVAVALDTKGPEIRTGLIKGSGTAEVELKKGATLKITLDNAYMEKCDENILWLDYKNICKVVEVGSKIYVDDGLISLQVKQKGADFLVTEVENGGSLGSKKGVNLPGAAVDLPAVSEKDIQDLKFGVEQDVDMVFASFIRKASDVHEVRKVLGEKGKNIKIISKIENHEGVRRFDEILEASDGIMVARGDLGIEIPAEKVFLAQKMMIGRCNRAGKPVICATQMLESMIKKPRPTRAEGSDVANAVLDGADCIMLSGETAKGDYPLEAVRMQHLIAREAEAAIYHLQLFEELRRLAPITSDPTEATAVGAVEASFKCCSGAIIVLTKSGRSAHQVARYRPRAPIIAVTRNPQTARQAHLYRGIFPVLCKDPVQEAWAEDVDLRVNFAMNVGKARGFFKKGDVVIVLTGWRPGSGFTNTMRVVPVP

HT29 = assay: Cell line sensitivity (viability, ATPlite); assay type: cell-based; settings: Homo sapiens, HT-29; HT29, Colon; BME media, 72 hours; read-out: Sensitivity to Example 1 (IC50)
Protocol: (§1) Viability effect of Example 1 against a subset of lung carcinoma cell lines was determined as follows. Cells were seeded at 1500 cells per well in 384-well plates in BME media, and compound was added in 0.1% DMSO 18 hours later. Viability was determined by ATPlite assay after 72 hours. (See FIG. 4C).
(§2) Example 1 was tested against an expanded panel of cell lines according to the above procedure.

LNCaP = assay: Cell line sensitivity (viability, ATPlite); assay type: cell-based; settings: Homo sapiens, Prostate, BME media, 72 hours, read-out: Sensitivity to Example 1 (IC50)
Protocol: as §1, §2

SW48 = assay: Cell line sensitivity (viability, ATPlite); assay type: cell-based; settings: Homo sapiens; SW48, Colon; BME media, 72 hours; read-out: Sensitivity to Example 1 (IC50)
Protocol: as §1, §2

Caki-1 = assay: Cell line sensitivity (viability, ATPlite); assay type: cell-based; settings: Homo sapiens; Caki-1, Kidney; BME media, 72 hours; read-out: Sensitivity to Example 1 (IC50)
Protocol: as §1, §2

Skov3 = assay: Cell line sensitivity (viability, ATPlite); assay type: cell-based; settings: Homo sapiens, SK-OV-3; Skov3, Ovarian; BME media, 72 hours; read-out: Sensitivity to Example 1 (IC50)
Protocol: as §1, §2

AsPC1 = assay: Cell line sensitivity (viability, ATPlite); assay type: cell-based; settings: Homo sapiens; AsPC1, Pancreatic; BME media, 72 hours; read-out: Sensitivity to Example 1 (IC50)
Protocol: as §1, §2

Capan2 = assay: Cell line sensitivity (viability, ATPlite); assay type: cell-based; settings: Homo sapiens, Capan-2; Capan2, Pancreatic; BME media, 72 hours; read-out: Sensitivity to Example 1 (IC50)
Protocol: as §1, §2

OVCAR-3 = assay: Cell line sensitivity (viability, ATPlite); assay type: cell-based; settings: Homo sapiens; OVCAR-3, Ovarian; BME media, 72 hours; read-out: Sensitivity to Example 1 (IC50)
Protocol: as §1, §2

NCI-H460 = assay: Cell line sensitivity (viability, ATPlite); assay type: cell-based; settings: Homo sapiens; NCI-H460, Lung; BME media, 72 hours; read-out: Sensitivity to Example 1 (IC50)
Protocol: as §1, §2

SW948 = assay: Cell line sensitivity (viability, ATPlite); assay type: cell-based; settings: Homo sapiens; SW948, Colon; BME media, 72 hours; read-out: Sensitivity to Example 1 (IC50)
Protocol: as §1, §2

SW620 = assay: Cell line sensitivity (viability, ATPlite); assay type: cell-based; settings: Homo sapiens, SW-620; SW620, Colon; BME media, 72 hours; read-out: Sensitivity to Example 1 (IC50)
Protocol: as §1, §2

Panc-1 = assay: Cell line sensitivity (viability, ATPlite); assay type: cell-based; settings: Homo sapiens; Panc-1, Pancreatic; BME media, 72 hours; read-out: Sensitivity to Example 1 (IC50)
Protocol: as §1, §2

MCF7 = assay: Cell line sensitivity (viability, ATPlite); assay type: cell-based; settings: Homo sapiens; MCF7, Breast; BME media, 72 hours; read-out: Sensitivity to Example 1 (IC50)
Protocol: as §1, §2

NCI-H522 = assay: Cell line sensitivity (viability, ATPlite); assay type: cell-based; settings: Homo sapiens; NCI-H522, Lung; BME media, 72 hours; read-out: Sensitivity to Example 1 (IC50)
Protocol: as §1, §2

HT1080 = assay: Cell line sensitivity (viability, ATPlite); assay type: cell-based; settings: Homo sapiens, HT-1080; HT1080, Sarcoma; BME media, 72 hours; read-out: Sensitivity to Example 1 (IC50)
Protocol: as §1, §2

Du145 = assay: Cell line sensitivity (viability, ATPlite); assay type: cell-based; settings: Homo sapiens, DU-145; Du145, Prostate; BME media, 72 hours; read-out: Sensitivity to Example 1 (IC50)
Protocol: as §1, §2

HCT116 = assay: Cell line sensitivity (viability, ATPlite); assay type: cell-based; settings: Homo sapiens, HCT-116; HCT116, Colon; BME media, 72 hours; read-out: Sensitivity to Example 1 (IC50)
Protocol: as §1, §2

H1299 = assay: Cell line sensitivity (viability, ATPlite); assay type: cell-based; settings: Homo sapiens, NCI-H1299; H1299, Lung; BME media, 72 hours; read-out: Sensitivity to Example 1 (IC50)
Protocol: as §1, §2

Ls174T = assay: Cell line sensitivity (viability, ATPlite); assay type: cell-based; settings: Homo sapiens, Colon, BME media, 72 hours, read-out: Sensitivity to Example 1 (IC50)
Protocol: as §1, §2

A549 cells = assay: Cell Proliferation Assay, A549; assay type: cell-based; settings: Homo sapiens; A549, BME media lacking nonessential amino acids, 72 hours, ATPlite; read-out: Percent viability (EC50), Average
Protocol: Cells were seeded at 5000 cells per well (in 96-well plate) in BME media lacking nonessential amino acids+5% dialyzed serum. After 18 hours, DMSO or compound in 0.1% final concentration DMSO was added.
Percent viability (EC50) of A549 and PC3 cells was tested against certain exemplary compounds according to the above general procedures.

With `O=C(c1cc(C(F)(F)F)n[nH]1)N(Cc1ccc(O)cc1F)CC1CCC1` [Example 1, N-(cyclobutylmethyl)-N-(2-fluoro-4-hydroxybenzyl)-3-(trifluoromethyl)-1H-pyrazole-5-carboxamide] the EC50 (PKM2 [1]) was 220 ± 50 nM, the “Max. Resp.” value (PKM2 [2]; % maximum response in a biochemical assay as compared with Fructose 1,6-bisphosphate) was 100% and the Emax (PKM2 [2]; read-out: % FBP (extent of maximal activation, relative to FBP)) was 104 ± 11%. For the same compound, the AC50 (PKM2 [2]; read-out: AC50 (concentration of half-maximal PKM2 activation), Table 2, n = 6 to 10) was 11 ± 4 nM, the AC50 (PKM2 [2]; read-out: PKM2 AC50, 2 nM PKM2, 75 μM ADP, 15 μM PEP, Kinase Glo) was 11 nM and the “Maximal PKM2 activity” value (PKM2 [2]; relative to activity in DMSO controls (normalized to 100%), FIG. 1B) was “approximately 600%”. For the same compound, the IC50 (HT29) was 100 nM, the IC50 (LNCaP) was greater than 30000 nM and the IC50 (SW48) was greater than 30000 nM. For the same compound, the IC50 (Caki-1) was 80 nM, the IC50 (Skov3) was 8000 nM and the IC50 (AsPC1) was greater than 30000 nM. The IC50 (Capan2) was greater than 30000 nM, the IC50 (OVCAR-3) was 20 nM and the IC50 (NCI-H460) was 5000 nM. It also gave an IC50 (SW948) greater than 30000 nM, an IC50 (SW620) of 200 nM and an IC50 (Panc-1) of 14 nM. It also gave an IC50 (MCF7) greater than 30000 nM, an IC50 (NCI-H522) greater than 30000 nM and an IC50 (HT1080) of 50 nM. For the same compound, the IC50 (Du145) was greater than 30000 nM, the IC50 (HCT116) was 100 nM and the IC50 (H1299) was 600 nM. The IC50 (Ls174T) was greater than 30000 nM and the EC50 (A549 cells) was 70 nM.
